Results: patent US20250354297A1, “SHIELDED SMALL NUCLEOTIDES FOR INTRACELLULAR BARCODING” (BOARD OF REGENTS, THE UNIVERSITY OF TEXAS SYSTEM, priority 2021, published 2025)

What was measured:
CD19.28z CAR T cells [1] = test: 8-plex CAR T SSN-seq ex vivo (infusion product); type: cell-based, human; details: 5 μM TWS119, 0.15 μM JQ1; CCR7, SELL, TCF7
Description: Pooled/sorted cells were processed for single-cell RNA sequencing at using Chromium Next GEM Single Cell 3′ Reagent Kit V3.1 (with feature barcoding technology for CRISPR screening), following the manufacturer's protocol. For enrichSSN amplification, a primer specific to the 5′ shield sequence was used (see FIG. 16A) and PCR was performed following 10× Genomics protocol for “Feature PCR” with 15 or 19 amplification cycles. Pooled libraries (the 3′ gene expression library and the sgRNA/SSN library, at a 4:1 ratio) were sequenced with a NovaSeq6000 SP-100 flow cell (Illumina) for each scRNA-seq experiment.
scRNA-seq data were preprocessed. In brief, gene expressing reads were aligned to the GRCh38 genome (human) and/or mm 10 genome (mouse) using the 10× Genomics Cell Ranger (version 6.0.2, 6.1.1 and 6.1.2), with the cellranger count pipeline. sgRNA/SSN counts were retrieved by cellranger count using the pattern containing unique group barcodes and constant sequences derived from the sgRNA/SSN scaffold. […] To ensure a fair quantitative comparison, sgRNA/SSN UMI counts shown across different experiments were restricted to the raw output of cellranger count. Filtered feature-barcode matrices were further analyzed in R using Seurat (version 4.0.3). In general, genes detected in less than three cells and cells expressing <200 or >7,000 RNA features (genes) were filtered out. […]

CD19.28z CAR T cells [2] = test: Flow cytometry of T cell memory markers CCR7 and CD45RA in 8-plex CAR T cells; type: cell-based, human; details: 5 μM TWS119, 0.15 μM JQ1, day 8
Description: 8-plex CAR T SSN-seg ex vivo (infusion product). Twenty-four hours after activation, human primary T cells were transduced with lentiviral vectors (see FIG. 16B). Transduced T cells were cultured in the presence of 5 μM TWS119, 0.15 μM JQ1, the combination of TWS119 and JQ1 (Combo), or DMSO (Mock) controls. CAR T cells in four treatment groups were expanded in culture media supplemented with IL2 or IL7 plus IL15 (denoted as IL7×15) cytokines. Culture media containing small molecule inhibitors and cytokines were replenished every other day. CAR T cells were maintained at a concentration of 0.5 to 1×10^6 cells per ml. On day 8, expression of T cell memory makers (CCR7 and CD45RA) was evaluated in all treatment groups using flow cytometry. Then, CAR T cells in all groups were counted and pooled at equal ratios. To enrich CAR^+ population a cell surface reporter NGFR^+ was utilized to FACS purify CAR T cells before scRNA-seq analysis. Aliquots of the pooled samples were also injected into tumor mice. Remaining CAR T cells were cryopreserved in CryoStor CS10 media (Stem Cell Technologies).

SMILES	enriched genes in transcriptome analysis (CD19.28z CAR T cells [1])	naïve and central memory markers (CCR7, CD45RA) (CD19.28z CAR T cells [2])
Cc1sc2c(c1C)C(c1ccc(Cl)cc1)=N[C@@H](CC(=O)OC(C)(C)C)c1nnc(C)n1-2 [JQ1]	enriched in memory-related genes	enrichment of naïve and central memory markers
Nc1cccc(-c2cc3c(Oc4cccc(O)c4)ncnc3[nH]2)c1 [TWS119]	enriched in memory-related genes	enrichment of naïve and central memory markers
